# Source: US20080293571A1, “Insecticide organic fertilizer composition, process and method” (priority 2007, published 2008)
# Test: Biodegradation of rotenone after the composition is poured onto soil
# Conditions: rotenone in the composition
compound,measurement,setting,value
C=C(C)[C@H]1Cc2c(ccc3c2O[C@@H]2COc4cc(OC)c(OC)cc4[C@@H]2C3=O)O1 [rotenone],Time until substantially biodegraded after pouring or drenching the nest,,approximately 3 days
same,Time until biodegrading after pouring the solution onto the soil,stable in liquid form in the container,2 to 5 days
